Publication PMC8286599 (Gut Pathogens, 2021)
Where two headings read alike, the source gives them in different places.

How the values were obtained:
[1] = tested on: MDR-S. Enteritidis strains; assay: Stability assay, pH (MIC)
Description: (§5) To explore the utility of phytochemicals as therapeutic molecules and their stability, individual phytochemicals were exposed to cationic salts, and different pH levels followed by analysing their MIC and MBC values against test strains as described earlier.
(§6) Subsequent to exposure to varied conditions, the antimicrobial activity of the phytochemicals was estimated by determining their MIC and MBC values against all the selected MDR strains of EAEC, S. Enteritidis, and S. Typhimurium as described earlier.

[2] = tested on: MDR-S. Enteritidis strains; assay: Stability assay, cationic salts (MIC)
Description: as §5, §6

MDR-EAEC strains [3] = assay: MIC and MBC by broth microdilution with resazurin; format: cell-based, enteroaggregative Escherichia coli; settings: infant diarrhoea isolate
Description: (§1) The characterised MDR field strains of EAEC (E1; E2; E3), S. Enteritidis (S1; S2; S3), and S. Typhimurium (ST1; ST2; ST3) maintained in the laboratory repository of Meat Safety Laboratory of ICAR-National Research Centre on Meat, Hyderabad re-validated using PCR assays were used to evaluate the in vitro antibacterial efficacy of phytochemicals. E. coli ATCC 25922 was used as the quality control strain.
(§2) The antimicrobial efficacy of identified phytochemicals against multi-drug resistant EAEC and NTS strains was determined by estimating the minimum inhibitory concentration (MIC) and minimum bactericidal concentrations (MBC).
(§3) Subsequent to the incubation period, resazurin dye (0.015 %) was added to all the wells to determine the dye reduction (pink) and thereby the bacterial inhibition.

[4] = Haemolytic assay, text summary; format: cell-based; settings: sheep and human, sheep and human 'O' erythrocytes; read-out: Haemolysis
Description: (§4) The haemolytic assay of the individual phytochemical was performed by measuring the release of haemoglobin from sheep and human ‘O’ erythrocytes at 540 nm. The percentage of haemolysis was calculated as (Asample – APBS)/ (ATriton−X – APBS) ×100, in which Asample is the absorbance of phytochemical treatment, APBS is the absorbance of untreated control with PBS, and ATriton−X is the absorbance of lysed cells treated with Triton X-100 measured at 540 nm.

MDR-EAEC strains [5] = assay: Stability assay, cationic salts (MIC)
Description: as §5, §6

[6] = tested on: MDR-S. Typhimurium strains; assay: Stability assay, cationic salts (MIC)
Description: as §5, §6

[7] = tested on: MDR-S. Typhimurium strains; assay: MIC and MBC by broth microdilution with resazurin; format: cell-based, Salmonella Typhimurium; settings: poultry droppings isolate
Description: as §1, §2, §3

Haemolytic assay = format: cell-based; settings: read-out: Haemolysis; for hemolysis at 0.5 X MIC: 0.50X MIC
Description: as §4

[8] = tested on: MDR-S. Typhimurium strains; assay: Stability assay, pH (MIC)
Description: as §5, §6

MDR-EAEC strains [9] = assay: Stability assay, pH (MIC)
Description: as §5, §6

[10] = tested on: MDR-S. Enteritidis strains; assay: MIC and MBC by broth microdilution with resazurin; format: cell-based, Salmonella Enteritidis; settings: poultry droppings isolate
Description: as §1, §2, §3

[11] = human 'O' erythrocytes, Human RBCs

What does the source list for Cc1ccc(C(C)C)cc1O [Carvacrol, carvacrol]?
MIC at given pH ([1]; pH 4, strain S1): 0.5 µl/ml; MIC at given pH ([1]; pH 4, strain S2): 0.5 µl/ml; MIC at given pH ([1]; pH 4, strain S3): 0.5 µl/ml; MIC at given pH ([1]; pH 6, strain S1): 0.5 µl/ml; MIC at given pH ([1]; pH 6, strain S2): 0.5 µl/ml; MIC at given pH ([1]; pH 6, strain S3): 0.5 µl/ml; MIC at given pH ([1]; pH 8, strain S1): 0.5 µl/ml; MIC at given pH ([1]; pH 8, strain S2): 0.5 µl/ml; MIC at given pH ([1]; pH 8, strain S3): 0.5 µl/ml; MIC with cationic salt ([2]; 2 mM MgCl2, strain S1): 0.5 µl/ml; MIC with cationic salt ([2]; 2 mM MgCl2, strain S2): 0.5 µl/ml; MIC with cationic salt ([2]; 2 mM MgCl2, strain S3): 0.5 µl/ml; MIC with cationic salt ([2]; 150 mM NaCl, strain S1): 0.5 µl/ml; MIC with cationic salt ([2]; 150 mM NaCl, strain S2): 1.0 µl/ml; MIC with cationic salt ([2]; 150 mM NaCl, strain S3): 0.5 µl/ml; MBC (MDR-EAEC strains [3]; EAEC (E1)): 1.0 µl/ml; MIC (MDR-EAEC strains [3]; EAEC (E1)): 0.25 µl/ml; MBC (MDR-EAEC strains [3]; EAEC (E2)): 0.50 µl/ml; MIC (MDR-EAEC strains [3]; EAEC (E2)): 0.50 µl/ml; MBC (MDR-EAEC strains [3]; EAEC (E3)): 0.50 µl/ml; MIC (MDR-EAEC strains [3]; EAEC (E3)): 0.25 µl/ml; hemolysis [4]: 57 to 82%; MIC with cationic salt (MDR-EAEC strains [5]; 2 mM MgCl2, strain E1): 0.5 µl/ml; MIC with cationic salt (MDR-EAEC strains [5]; 2 mM MgCl2, strain E2): 1.0 µl/ml; MIC with cationic salt (MDR-EAEC strains [5]; 2 mM MgCl2, strain E3): 1.0 µl/ml; Change of MIC values with cationic salts (MDR-EAEC strains [5]; 150 mM NaCl and 2 mM MgCl2, MDR-EAEC strains): two- to four-fold increase; MIC with cationic salt (MDR-EAEC strains [5]; 150 mM NaCl, strain E1): 1.0 µl/ml; MIC with cationic salt (MDR-EAEC strains [5]; 150 mM NaCl, strain E2): 1.0 µl/ml; MIC with cationic salt (MDR-EAEC strains [5]; 150 mM NaCl, strain E3): 1.0 µl/ml; MIC with cationic salt ([6]; 2 mM MgCl2, strain ST1): 0.5 µl/ml; MIC with cationic salt ([6]; 2 mM MgCl2, strain ST2): 0.5 µl/ml; MIC with cationic salt ([6]; 2 mM MgCl2, strain ST3): 0.5 µl/ml; MIC with cationic salt ([6]; 150 mM NaCl, strain ST1): 0.5 µl/ml; MIC with cationic salt ([6]; 150 mM NaCl, strain ST2): 0.5 µl/ml; MIC with cationic salt ([6]; 150 mM NaCl, strain ST3): 0.5 µl/ml; MBC ([7]; S. Typhimurium (ST1)): 0.50 µl/ml; MIC ([7]; S. Typhimurium (ST1)): 0.12 µl/ml; MBC ([7]; S. Typhimurium (ST2)): 0.50 µl/ml; MIC ([7]; S. Typhimurium (ST2)): 0.12 µl/ml; MBC ([7]; S. Typhimurium (ST3)): 0.50 µl/ml; MIC ([7]; S. Typhimurium (ST3)): 0.12 µl/ml; hemolysis at 0.25 X MIC (Haemolytic assay; [11]): 2.66%; hemolysis at 0.5 X MIC (Haemolytic assay; [11]): 4.88%; hemolysis at 1 X MIC (Haemolytic assay; [11]): 11.2%; hemolysis at 2 X MIC (Haemolytic assay; [11]): 57.2%; hemolysis at 4 X MIC (Haemolytic assay; [11]): 82.1%; hemolysis at 8 X MIC (Haemolytic assay; [11]): 92.7%; hemolysis at 0.25 X MIC (Haemolytic assay; sheep erythrocytes, Sheep RBCs): 0%; hemolysis at 0.5 X MIC (Haemolytic assay; sheep erythrocytes, Sheep RBCs): 0.773%; hemolysis at 1 X MIC (Haemolytic assay; sheep erythrocytes, Sheep RBCs): 1.25%; hemolysis at 2 X MIC (Haemolytic assay; sheep erythrocytes, Sheep RBCs): 75.7%; hemolysis at 4 X MIC (Haemolytic assay; sheep erythrocytes, Sheep RBCs): 81.8%; hemolysis at 8 X MIC (Haemolytic assay; sheep erythrocytes, Sheep RBCs): 86%; MIC at given pH ([8]; pH 4, strain ST1): 0.5 µl/ml; MIC at given pH ([8]; pH 4, strain ST2): 0.5 µl/ml; MIC at given pH ([8]; pH 4, strain ST3): 1.0 µl/ml; MIC at given pH ([8]; pH 6, strain ST1): 0.5 µl/ml; MIC at given pH ([8]; pH 6, strain ST2): 1.0 µl/ml; MIC at given pH ([8]; pH 6, strain ST3): 1.0 µl/ml; MIC at given pH ([8]; pH 8, strain ST1): 2.0 µl/ml; MIC at given pH ([8]; pH 8, strain ST2): 1.0 µl/ml; MIC at given pH ([8]; pH 8, strain ST3): 1.0 µl/ml; MIC at given pH (MDR-EAEC strains [9]; pH 4, strain E1): 0.5 µl/ml; MIC at given pH (MDR-EAEC strains [9]; pH 4, strain E2): 1.0 µl/ml; MIC at given pH (MDR-EAEC strains [9]; pH 4, strain E3): 0.5 µl/ml; Change of MIC values at varied pH (MDR-EAEC strains [9]; pH 4.0 to 8.0, MDR-EAEC strains): two- to four-fold increase; MIC at given pH (MDR-EAEC strains [9]; pH 6, strain E1): 0.5 µl/ml; MIC at given pH (MDR-EAEC strains [9]; pH 6, strain E2): 1.0 µl/ml; MIC at given pH (MDR-EAEC strains [9]; pH 6, strain E3): 0.5 µl/ml; MIC at given pH (MDR-EAEC strains [9]; pH 8, strain E1): 0.5 µl/ml; MIC at given pH (MDR-EAEC strains [9]; pH 8, strain E2): 1.0 µl/ml; MIC at given pH (MDR-EAEC strains [9]; pH 8, strain E3): 0.5 µl/ml; MBC ([10]; S. Enteritidis (S1)): 0.50 µl/ml; MIC ([10]; S. Enteritidis (S1)): 0.12 µl/ml; MBC ([10]; S. Enteritidis (S2)): 0.50 µl/ml; MIC ([10]; S. Enteritidis (S2)): 0.25 µl/ml; MBC ([10]; S. Enteritidis (S3)): 0.50 µl/ml; MIC ([10]; S. Enteritidis (S3)): 0.25 µl/ml
